The source of these data is paper PMC4574540, “Aspergillus niger membrane-associated proteome analysis for the identification of glucose transporters” (Biotechnology for Biofuels, 2015).

One test concerns the target T1, MstH (Aspergillus niger, UniProt A5ABZ0).
T1 construct: gene An15g03940; also called pRS426H7), expressed in S. cerevisiae EBY.VW4000 hexose transporter null mutant, whole-cell uptake
T1 sequence (A5ABZ0 1-527): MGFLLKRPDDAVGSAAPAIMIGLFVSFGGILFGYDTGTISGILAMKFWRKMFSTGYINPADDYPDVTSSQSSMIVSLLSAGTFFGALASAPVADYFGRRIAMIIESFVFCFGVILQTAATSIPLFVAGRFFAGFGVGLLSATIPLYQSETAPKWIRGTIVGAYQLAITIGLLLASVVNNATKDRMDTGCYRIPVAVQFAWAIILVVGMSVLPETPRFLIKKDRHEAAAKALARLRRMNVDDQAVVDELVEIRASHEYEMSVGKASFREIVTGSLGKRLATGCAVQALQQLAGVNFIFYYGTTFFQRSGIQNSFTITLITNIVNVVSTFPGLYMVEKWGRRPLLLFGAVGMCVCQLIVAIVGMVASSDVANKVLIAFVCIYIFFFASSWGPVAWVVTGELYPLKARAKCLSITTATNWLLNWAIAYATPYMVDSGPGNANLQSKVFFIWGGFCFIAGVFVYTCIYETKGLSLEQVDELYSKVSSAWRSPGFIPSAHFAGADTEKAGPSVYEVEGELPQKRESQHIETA
Description: competition of […]-glucose uptake in yeast cells. Format: cell-based. The conditions noted are these: read-out: % inhibition at 10 mM.

Another test deals with T2, MstG (Aspergillus niger, UniProt A2QKT1).
T2 construct: gene An05g01290; also called pRS426H7), expressed in S. cerevisiae EBY.VW4000 hexose transporter null mutant, whole-cell uptake
T2 sequence (A2QKT1 1-542): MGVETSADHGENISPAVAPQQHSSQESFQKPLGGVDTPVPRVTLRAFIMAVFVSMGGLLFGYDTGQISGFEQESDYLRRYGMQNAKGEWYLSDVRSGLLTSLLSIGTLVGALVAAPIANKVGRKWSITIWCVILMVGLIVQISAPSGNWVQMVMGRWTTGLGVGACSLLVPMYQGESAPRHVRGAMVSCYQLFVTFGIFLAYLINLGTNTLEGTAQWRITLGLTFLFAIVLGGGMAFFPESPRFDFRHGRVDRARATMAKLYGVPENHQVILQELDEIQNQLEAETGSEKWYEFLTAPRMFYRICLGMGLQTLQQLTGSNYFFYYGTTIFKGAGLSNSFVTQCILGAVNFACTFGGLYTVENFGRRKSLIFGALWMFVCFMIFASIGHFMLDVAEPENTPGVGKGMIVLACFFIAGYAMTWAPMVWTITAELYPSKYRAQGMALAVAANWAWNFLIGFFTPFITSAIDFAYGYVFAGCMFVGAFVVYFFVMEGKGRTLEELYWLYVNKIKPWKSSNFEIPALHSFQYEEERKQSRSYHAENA
Description: competition of […]-glucose uptake in yeast cells. Format: cell-based. As to conditions: read-out: % inhibition at 10 mM.

Consider `OCC1(O)OC[C@@H](O)[C@@H](O)[C@@H]1O` (some centres unmarked) [fructose], for which the inhibition at 10000 µM on MstH is 50%; at MstG, 29%.
Turning to `OC[C@H]1OC(O)[C@H](O)[C@@H](O)[C@H]1O` (some centres unmarked) [galactose], the inhibition at 10000 µM on MstG turned out to be 39%.
As for `OC[C@H]1OC(O)[C@@H](O)[C@@H](O)[C@@H]1O` (some centres unmarked) [mannose], the inhibition at 10000 µM on MstH was determined as 70%.
`OC1OC[C@@H](O)[C@H](O)[C@H]1O` (some centres unmarked) [xylose]: the inhibition at 10000 µM at MstG stood at 25%.

A word on the inhibition: it is the drop in the measured response relative to a control, in per cent.
